Measurements: patent US11884647B2, “Compounds and methods for targeting pathogenic blood vessels” (THE REGENTS OF THE UNIVERSITY OF CALIFORNIA, priority 2019, dated 2024)

tested on: tumor endothelial cells (LL/2 lung cancer tumor); test: Lung LL2 ex vivo model of tumor angiogenesis; assay type: cell-based, mouse; details: Lung LL2 ex vivo; Conc. 20 μm; (24 hrs)
Method in brief: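 Read-out is live/dead fluorescence imaging (fluorescein diacetate green, propidium iodide red, 10 min at 37° C) at 2×, taken e.g. 48 h after drug addition. Fragments of mouse LL2 tumor are cultured in Matrigel with endothelial growth medium, usually 4 days, until new endothelial cells grow out, then treated.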

First: CCCCCCCCCCOc1ccc(S(=O)(=O)c2cnc3ccc([S+](C)[O-])cc3c2N2CCC(N3CCC(N4CCCN(C)CC4)CC3)CC2)cc1 (stereo not drawn) [compound 287, 3-((4-(decyloxy)phenyl)sulfonyl)-4-(4-(4-methyl-1,4-diazepan-1-yl)-[1,4′-bipiperidin]-1′-yl)-6-(methylsulfinyl)quinoline]
Second: CCCCCCCCCCOc1ccc(S(=O)(=O)c2cnc3ccc([S+](C)[O-])cc3c2N2CCC(N3CCC(N4CCOCC4)CC3)CC2)cc1 (stereo not drawn) [compound 286, 4-(1′-(3-((4-(decyloxy)phenyl)sulfonyl)-6-(methylsulfinyl)quinolin-4-yl)-[1,4′-bipiperidin]-4-yl)morpholine]
The “Cell death (24 hrs)” value of the first is higher: 40% for the first, 0% for the second.

For `CCCCCCCCCCOc1ccc(S(=O)(=O)c2cnc3ccc([S+](C)[O-])cc3c2N2CCC(N3CCC(N4CCCN(C)CC4)CC3)CC2)cc1` (stereo not drawn) [compound 287, 3-((4-(decyloxy)phenyl)sulfonyl)-4-(4-(4-methyl-1,4-diazepan-1-yl)-[1,4′-bipiperidin]-1′-yl)-6-(methylsulfinyl)quinoline], the “Morphology observations (24 hrs)” value was “* (50% or less of cells vesicularize in cell shape)”.

In the case of `CCCCCCCCCCOc1ccc(S(=O)(=O)c2cnc3ccc([S+](C)[O-])cc3c2N2CCC(N3CCC(N4CCOCC4)CC3)CC2)cc1` (stereo not drawn) [compound 286, 4-(1′-(3-((4-(decyloxy)phenyl)sulfonyl)-6-(methylsulfinyl)quinolin-4-yl)-[1,4′-bipiperidin]-4-yl)morpholine], the “Morphology observations (24 hrs)” value is reported as 0.

same assay, conditions: Lung LL2 ex vivo; Conc. 20 μm; drug treatment two days

`COc1ccc(S(=O)(=O)c2cnc3ccc(OC(F)(F)F)cc3c2N2CCC(N3CCC(O)CC3)CC2)cc1` [compound 113, 1′-(3-((4-methoxyphenyl)sulfonyl)-6-(trifluoromethoxy)quinolin-4-yl)-[1,4′-bipiperidin]-4-ol] showed a Cell death of 10%.

same assay, conditions: Lung LL2 ex vivo; Conc. 40 μm; drug treatment two days

`CCCCOc1ccc(S(=O)(=O)c2cnc3ccc(SC)cc3c2N2CCCN(CCO)CC2)cc1` [compound 351, 2-(4-(3-((4-butoxyphenyl)sulfonyl)-6-(methylthio)quinolin-4-yl)-1,4-diazepan-1-yl)ethan-1-ol] and `CCCCOc1ccc(S(=O)(=O)c2cnc3ccc(SC)cc3c2N2CCC(N3CCN(CCO)CC3)CC2)cc1` [compound 230, 2-(4-(1-(3-((4-butoxyphenyl)sulfonyl)-6-(methylthio)quinolin-4-yl)piperidin-4-yl)piperazin-1-yl)ethan-1-ol] are the same in Cell death: 100% for the first, 100% for the second.

First: CCCCOc1ccc(S(=O)(=O)c2cnc3ccc(C(=O)NC4C(O)O[C@H](CO)[C@@H](O)[C@@H]4O)cc3c2N2CCCN(C)CC2)cc1 (stereo partly drawn) [compound 193, 3-((4-butoxyphenyl)sulfonyl)-4-(4-methyl-1,4-diazepan-1-yl)-N-((4R,5S,6R)-2,4,5-trihydroxy-6-(hydroxymethyl)tetrahydro-2H-pyran-3-yl)quinoline-6-carboxamide]
Second: COc1ccc(S(=O)(=O)c2cnc3cc(OC)c(OC)cc3c2N2CCCN(c3nc4ccc(Cl)cc4s3)CC2)cc1 [compound 327, 6-chloro-2-(4-(6,7-dimethoxy-3-((4-methoxyphenyl)sulfonyl)quinolin-4-yl)-1,4-diazepan-1-yl)benzo[d]thiazole]
The Cell death of the first is higher: 30% for the first, 20% for the second.

same assay, conditions: Mus musculus, Endothelial cell, 48 h, read-out: Cell death

Compared with `CCCCOc1ccc(S(=O)(=O)c2cnc3ccc([S+](C)[O-])cc3c2N2CCC(N3CCN(CCO)CC3)CC2)cc1` (stereo not drawn) [compound 236, 2-(4-(1-(3-((4-butoxyphenyl)sulfonyl)-6-(methylsulfinyl)quinolin-4-yl)piperidin-4-yl)piperazin-1-yl)ethan-1-ol], `CCCCOc1ccc(S(=O)(=O)c2cnc3ccc([S+](C)[O-])cc3c2N2CCC(N3CCN(c4ccc(F)cc4)CC3)CC2)cc1` (stereo not drawn) [compound 239, 3-((4-butoxyphenyl)sulfonyl)-4-(4-(4-(4-fluorophenyl)piperazin-1-yl)piperidin-1-yl)-6-(methylsulfinyl)quinoline] is higher in cytotoxicity at 40 µM: 5% for the first, 40% for the second.

Going from `CCCCOc1ccc(S(=O)(=O)c2cnc3ccc(C(=O)N(CC)CC)cc3c2N2CCCN(C)CC2)cc1` [compound 199, 3-((4-butoxyphenyl)sulfonyl)-N,N-diethyl-4-(4-methyl-1,4-diazepan-1-yl)quinoline-6-carboxamide] to `CCCCOc1ccc(S(=O)(=O)c2cnc3ccc(C(=O)OCC)cc3c2N2CCC(N3CCN(C)CC3)CC2)cc1` [compound 172, ethyl 3-((4-butoxyphenyl)sulfonyl)-4-(4-(4-methylpiperazin-1-yl)piperidin-1-yl)quinoline-6-carboxylate], the cytotoxicity at 40 µM rises from 30% to 100%.

`COc1ccc(S(=O)(=O)c2cnc3cc(OC)c(OC)cc3c2N2CCC(=O)N(C)CC2)cc1` [compound 328, 1-(6,7-dimethoxy-3-((4-methoxyphenyl)sulfonyl)quinolin-4-yl)-4-methyl-1,4-diazepan-5-one] and `COc1ccc(S(=O)(=O)c2cnc3cc(OC)c(OC)cc3c2N2CCCN(C3COC3)CC2)cc1` [compound 326, 6,7-dimethoxy-3-((4-methoxyphenyl)sulfonyl)-4-(4-(oxetan-3-yl)-1,4-diazepan-1-yl)quinoline] are the same in cytotoxicity at 40 µM: 30% for the first, 30% for the second.

`CCCCOc1ccc(S(=O)(=O)c2cnc3ccc(C(=O)OCC)cc3c2N2CCCN(CCN3CCCC3)CC2)cc1` [compound 182, ethyl 3-((4-butoxyphenyl)sulfonyl)-4-(4-(2-(pyrrolidin-1-yl)ethyl)-1,4-diazepan-1-yl)quinoline-6-carboxylate] and `CCCCOc1ccc(S(=O)(=O)c2cnc3ccc(C(=O)OCC)cc3c2N2CCCN(CCN3CCCCC3)CC2)cc1` [compound 181, ethyl 3-((4-butoxyphenyl)sulfonyl)-4-(4-(2-(piperidin-1-yl)ethyl)-1,4-diazepan-1-yl)quinoline-6-carboxylate] are the same in cytotoxicity at 40 µM: 100% for the first, 100% for the second.

First: CCN(CC)CCC(C)Nc1c(S(=O)(=O)c2ccc(OC)cc2)cnc2cc(OC)c(OC)cc12 (stereo not drawn) [compound 300, N3-(6,7-dimethoxy-3-((4-methoxyphenyl)sulfonyl)quinolin-4-yl)-N1,N1-diethylbutane-1,3-diamine]
Second: CCN(CC)CCCN1CCN(c2c(S(=O)(=O)c3ccc(OC)cc3)cnc3cc(OC)c(OC)cc23)CC1 [compound 302, 3-(4-(6,7-dimethoxy-3-((4-methoxyphenyl)sulfonyl)quinolin-4-yl)piperazin-1-yl)-N,N-diethylpropan-1-amine]
The cytotoxicity at 40 µM of the first is lower: 20% for the first, 70% for the second.

Compared with `COc1ccc(S(=O)(=O)c2cnc3cc(OC)c(OC)cc3c2N2CCC(O)(c3ccccc3)CC2)cc1` [compound 308, 1-(6,7-dimethoxy-3-((4-methoxyphenyl)sulfonyl)quinolin-4-yl)-4-phenylpiperidin-4-ol], `CCOC(=O)c1ccc2ncc(S(=O)(=O)c3ccc(OC)cc3)c(N3CCC(N4CCN(C)CC4)CC3)c2c1` [compound 171, ethyl 3-((4-methoxyphenyl)sulfonyl)-4-(4-(4-methylpiperazin-1-yl)piperidin-1-yl)quinoline-6-carboxylate] is higher in cytotoxicity at 40 µM: 20% for the first, 40% for the second.

For `CCOC(=O)c1ccc2ncc(S(=O)(=O)c3ccc(OC)cc3)c(N3CCC(N4CCCC(O)C4)CC3)c2c1` (stereo not drawn) [compound 174, ethyl 4-(3-hydroxy-[1,4′-bipiperidin]-1′-yl)-3-((4-methoxyphenyl)sulfonyl)quinoline-6-carboxylate], the cytotoxicity at 40 µM was 30%.

Compared with `CCOC(=O)c1ccc2ncc(S(=O)(=O)c3ccc(OC)cc3)c(-n3cncn3)c2c1` [compound 183, ethyl 3-((4-methoxyphenyl)sulfonyl)-4-(1H-1,2,4-triazol-1-yl)quinoline-6-carboxylate], `CCOC(=O)c1ccc2ncc(S(=O)(=O)c3ccc(OC)cc3)c(-n3cnnn3)c2c1` [compound 185, ethyl 3-((4-methoxyphenyl)sulfonyl)-4-(1H-tetrazol-1-yl)quinoline-6-carboxylate] is lower in cytotoxicity at 10 µM: 100% for the first, 30% for the second.

Compared with `CCCCCCCCCCOc1ccc(S(=O)(=O)c2cnc3ccc([S+](C)[O-])cc3c2N2CCCN(CCN3CCCCC3)CC2)cc1` (stereo not drawn) [compound 266, 3-((4-(decyloxy)phenyl)sulfonyl)-6-(methylsulfinyl)-4-(4-(2-(piperidin-1-yl)ethyl)-1,4-diazepan-1-yl)quinoline], `CCOC(=O)c1ccc2ncc(S(=O)(=O)c3ccc(OC)cc3)c(N3CCCN(CCN4CCCC4)CC3)c2c1` [compound 180, ethyl 3-((4-methoxyphenyl)sulfonyl)-4-(4-(2-(pyrrolidin-1-yl)ethyl)-1,4-diazepan-1-yl)quinoline-6-carboxylate] is higher in cytotoxicity at 10 µM: 5% for the first, 70% for the second.

`CCCCOc1ccc(S(=O)(=O)c2cnc3ccc(C(=O)OCC)cc3c2-n2cnnn2)cc1` [compound 186, ethyl 3-((4-butoxyphenyl)sulfonyl)-4-(1H-tetrazol-1-yl)quinoline-6-carboxylate] gave a cytotoxicity at 10 µM of 90%.

First: CCc1ccc(S(=O)(=O)c2cnc3ccc(OC(F)(F)F)cc3c2NCc2ccncc2)cc1 [compound 106, 3-((4-ethylphenyl)sulfonyl)-N-(pyridin-4-ylmethyl)-6-(trifluoromethoxy)quinolin-4-amine]
Second: CCCCOc1ccc(S(=O)(=O)c2cnc3ccc([S+](C)[O-])cc3c2N2CCC(N3CCC(O)CC3)CC2)cc1 (stereo not drawn) [compound 168, 1′-(3-((4-butoxyphenyl)sulfonyl)-6-(methylsulfinyl)quinolin-4-yl)-[1,4′-bipiperidin]-4-ol]
The cytotoxicity at 20 µM of the first is lower: 5% for the first, 10% for the second.

Going from `CCCCCCCOc1ccc(S(=O)(=O)c2cnc3ccc(SC)cc3c2N2CCC(N3CCCC(O)C3)CC2)cc1` (stereo not drawn) [compound 247, 1′-(3-((4-(heptyloxy)phenyl)sulfonyl)-6-(methylthio)quinolin-4-yl)-[1,4′-bipiperidin]-3-ol] to `CCCCCCCCCCCCCCCCOc1ccc(S(=O)(=O)c2cnc3ccc([S+](C)[O-])cc3c2N2CCC(N3CCC(N4CCCC(O)C4)CC3)CC2)cc1` (stereo not drawn) [compound 378, 1″-(3-((4-(hexadecyloxy)phenyl)sulfonyl)-6-(methylsulfinyl)quinolin-4-yl)-[1,4′:1′,4″- terpiperidin]-3-ol], the cytotoxicity at 20 µM falls from 60% to 30%.

`CCCCCCCCCCCCCCOc1ccc(S(=O)(=O)c2cnc3ccc([S+](C)[O-])cc3c2N2CCC(N3CCN(CCO)CC3)CC2)cc1F` (stereo not drawn) [compound 365, 2-(4-(1-(3-((3-fluoro-4-(tetradecyloxy)phenyl)sulfonyl)-6-(methylsulfinyl)quinolin-4-yl)piperidin-4-yl)piperazin-1-yl)ethanol] and `CC(C)CCCC(C)CCOc1ccc(S(=O)(=O)c2cnc3ccc([S+](C)[O-])cc3c2N2CCC(N3CCC(N4CCCCC4)CC3)CC2)cc1` (stereo not drawn) [compound 289, 4-([1,4′:1′,4″-terpiperidin]-1″-yl)-3-((4-((3,7-dimethyloctyl)oxy)phenyl)sulfonyl)-6-(methylsulfinyl)quinoline] are the same in cytotoxicity at 20 µM: 20% for the first, 20% for the second.
